The test system of one series is Sarcina lutea. Description: Disc zone of inhibition / MIC tests No. 1-3, poured in plate, Mueler Hinton pH 8. As to conditions: for zone of inhibition at 10 µg/disc: Micrococcus luteus; for zone of inhibition at 10 µg/disc / P (mm), zone of inhibition: pattern disc with 10 μg. Type of series: cell-based.
Series [1] can be described thus: Study of adverse reactions in healthy volunteers. Type of series: in vivo. The source says: Nineteen healthy volunteers participated in the study. The age of the participants was between 21 and 40 years with an average of 30.5±7.2 years. The weight was between 150 and 190 pounds with a median of 163.2±14.3 pounds and the height was 1.8 to 2.1 meters with an average of 1.9±0.1 meters. The subjects were selected at random in agreement with the national and international criteria and norms established for investigations with human beings.
The state of health of the participants was established using several clinical evaluations, laboratory tests, electrocardiographs and thoracic radiographs. The functionality of the liver and the renal systems was verified by chemical-enzymatic studies. Likewise, for each participant we carried out tests of blood chemistry, pathology and urinalysis. For the females, the absence of pregnancy and/or lactation was verified by means of laboratory tests and gynecological evaluation.
Participants were divided into three groups selected at random (n=6): • Group I (placebo) received 2.0 ml of saline solution (ClNa^+, 0.9%), Group II, received 60 mg of LMSV-6 intramuscularly, and Group III (n=7) received 100 mg of LMSV-6 intramuscularly. The participants underwent several tests used to establish the basal values of the objective parameters of the analysis, which included:
Lab Studies: hemogram, blood chemistry, urinalysis and coproanalysis
Cardiovascular Function: arterial tension (TA), cardiac rhythm (RC), cardiac frequency (FC) and radial pulse (PR)
Pulmonary Functions: pulmonary respiration (VP) and respiratory frequency (FR)
Renal Function: urinary volume and urinary frequency (FU)
Sensory System: hearing, vision, smell, taste and sensory reflexes
Skin and/or Teguments: sensitivity, skin texture, temperature and musculo-skeletal tone
Neurovegetative Functions: salivary gland and sweat gland activities, gastrointestinal […] and visceral reflexes
Hypersensitivity Reactions: local sensitivity and systemic sensitivity.

Series [2] has as its system PC-4 human prostate cancer cells. Description: In vitro cytotoxicity / anti-proliferative activity. The format is cell-based.
Experimental: (§5) Four tumor cell lines, including human prostate cancers PC-4 (androgen-insensitive) and LnCaP (androgen-insensitive) and human cervical cancers CaSKi (human papilloma virus-(HPV) Type-16 positive] and C-33 (HPV-negative), were cultured in RPMI-10% bovine serum, glutamine and antibiotics at 5% CO2 an 37 degrees Celsius.
(§6) The lethal dosages for each cell line is listed below:
In series [3] the test system is PC-4, LnCaP, CaSKi and C-33 tumor cell lines. As to conditions: curves of 1000 μg LMSV-6 and 1000 μM tamoxifen; cell line not stated. On the procedure: Four tumor cell lines, including human prostate cancers PC-4 ([…]) and LnCaP ([…]) and human cervical cancers CaSKi (human papilloma virus-(HPV) Type-16 positive] and C-33 (HPV-negative), were cultured in RPMI-10% bovine serum, glutamine and antibiotics at 5% CO2 an 37 degrees Celsius.

The test system of another series is Staphylococcus aureus. Briefly: Microbiological sensitivity assay. Type of series: cell-based. From the text:
Culture Medium for Staphylococo aureus (USP 23 <81>) • Peptone . . . 1.0 g • Digestive pancreatic Caseine . . . 4.0 g • Yeast Extract . . . 3.0 g • Beef Extract . . . 1.5 g • Dextrose . . . 1.0 g • Agar . . . 15.0 g • Water to make about . . . 1.0 Lit • pH after sterilized 6.6±0.1

Series [4] deals with CaSKi (HPV Type-16 positive) human cervical cancer cells. Description: In vitro cytotoxicity / anti-proliferative activity. Type of series: cell-based.
Experimental: as §5, §6
A further series has as its system Pseudomona aeruginosa. Description: Microbiological sensitivity assay. The format is cell-based. The source says: Culture Medium for Pseudomona aeruginosa (USP 23 <81>) • Pancreatic digestive Caseine . . . 17.0 g • soy Papaine digestive . . . 3.0 g • Sodium Chloride . . . 5.0 g • Dibasic Potassium Phosphate . . . 2.5 g • Dextrose . . . 2.5 g • Agar . . . 20.0 g • Water to make about . . . 1.0 Lit • pH after sterilized 7.2±0.1

Series [5] has as its system Salmonella typhimurium TA100. Briefly: Ames test. The format is cell-based. Conditions: ≦100 μg/mL. As for the experimental part:
(§1) This study was performed in accordance with the norms of USC 79/831, which establishes the guidelines for toxicological analytical methods.
(§2) The Ames test detects drug-induced ‘reverting mutations’ in previously mutated strains of Salmonella typhimurium, all of which have the rfa mutation that makes their cell membranes permeable to chemical agents. […] The presence of these mutations incapacitates the growth of these cells in a histidine-poor culture medium.
(§3) A drug is said to be mutagenic if it causes a greater than 2-fold increase in the number of colonies growing in histidine-poor medium.

The test system of series [6] is Salmonella typhimurium TA98. Description: Ames test. The format is cell-based. As to conditions: 1 or 10 μg/mL. As for the experimental part:
as §1, §2, §3
On the technique in general: In the Ames test, an excess of revertant colonies over the control signals mutagenicity.

For a further series, the system named is Klebsiela pneumoniae. Description: Microbiological sensitivity assay. Type of series: cell-based. The source says:
(§4) Culture Medium for E. coli and k. neumoniae (according to USP 23 <81>) • Peptone . . . 5.0 g • Yeast Extract . . . 1.5 g • Beef Extract . . . 1.5 g • Sodium Chloride . . . 3.5 g • Dextrose . . . 1.0 g • Dibasic Potassium Phosphate . . . 3.68 g • Monobasic Potassium Phosphate . . . 1.32 g • Water To make about . . . 1.0 L • pH after sterilized 7.0±0.05 Antibacterial Activity Assays (Minimum Inhibitory Concentration, MIC)

The test system of another series is Escherichia coli. Description: Microbiological sensitivity assay. Type of series: cell-based.
Excerpt: as §4

For series [7], the system named is C-33 (HPV-negative) human cervical cancer cells. Description: In vitro cytotoxicity / anti-proliferative activity. The format is cell-based.
Experimental: as §5, §6
The test system of series [8] is LnCaP human prostate cancer cells. The series is described as above. Type of series: cell-based.
Experimental: as §5, §6
Series [9] in a line: Rats infected in surgery, then treated. The format is in vivo. From the text:
The high activity of these lactones against Escherichia coli, Klebsiela pneumoniae, Pseudomona aeruginosa, Staphylococo aureus, among others, and its low molecular weight, are advantageous.

[10] abbreviates: anti-proliferative activity after 72 hours.

Where “and” joins values, the source holds several entries; their conditions need not be identical. Equal values may be shown once. Read-outs that look alike come from different tables or passages of the source.

On to `CO/N=C(\C(=O)N[C@@H]1C(=O)N2C(C(=O)O)=C(CSc3nc(=O)c(=O)[nH]n3C)CS[C@H]12)c1csc(N)n1` [Ceftriaxone, reference compound], for which the zone of inhibition at 10 µg/disc worked out at 18 mm in the series on Sarcina lutea (Test No 2, read-out: P (mm), zone of inhibition); 49 mm with Sarcina lutea (Test No 2, unlabelled sum line, read-out: P (mm), total of the three zones); 12 mm in the series on Sarcina lutea (Test No. 1, read-out: P (mm), zone of inhibition); 43 mm in the series on Sarcina lutea (Test No. 1, unlabelled sum line, read-out: P (mm), total of the three zones); 18 mm with Sarcina lutea (Test No. 3, read-out: P (mm), zone of inhibition); 49 mm in the series on Sarcina lutea (Test No. 3, unlabelled sum line, read-out: P (mm), total of the three zones). The “P (mm), zone of inhibition” value in the series on Sarcina lutea (Test No 2) was 16 mm and 15 mm; in the series with Sarcina lutea (Test No. 1), 15 mm and 16 mm; in the series on Sarcina lutea (Test No. 3), 16 mm and 15 mm.
Take `C=C1CCOC1=O` [LMSV-6, 4,5-dihydro-3-methylene-2[3H]furanone]: the “Respiratory frequency (FR)” value in series [1] (during the entire test) is 18 to 20 respirations per minute. For the same molecule, the Adverse reactions entry in series [1] (human, in vivo) was “no evidence, sign or symptom of adverse reactions”. In [1] (human, in vivo), the “Allergic effects (reactivity), local and systemic” value is listed as “not any manifestation of allergic reactions”. Further, the “Cutaneous sensitivity and temperature” value in [1] (human, in vivo) was “did not provoke any change”. For the same molecule, the Electrocardiograph pattern entry in [1] (human, in vivo) is given as “no variation”. For the same molecule, the “Mental state and sensory acuteness (auditory, visual, olfactory, taste)” value in [1] (human, in vivo) is “did not provoke any alteration”. The “Respiratory mechanics and dynamics” value in [1] (human, in vivo) is listed as “did not alter”. In series [1] (human, in vivo), the “Tolerance of maximum dosage tested” value is on record as “well tolerated”. For the same molecule, the “LD50, cytotoxicity” value in [2] (after 4 hours) is > 1,982 μM; in series [4] (after 4 hours), > 1,982 μM; in [7] (after 4 hours), 538 µM; in series [8] (LnCaP, after 4 hours), > 1,982 μM. The “LD50” value in [2] (setting [10]) is 59.2 µM; in series [4] (setting [10]) it was 64.3 µM; in series [7] (setting [10]) it was 7.10 µM; in series [8] (LNCaP, anti-proliferative activity after 72 hours) it was 26.5 µM. Further, in [3], the “LD50 from curves of percent inhibition of proliferation” value is 528 µM. Besides, the “S (mm), zone of inhibition” value was 20 mm and 23 mm and 19 mm with Sarcina lutea (Test No 2, 16.0 microliters/100 mL and 10 μL applied to sensibility disc); 40 mm and 44 mm and 43 mm in the series with Sarcina lutea (Test No. 1, 5 pure μL applied to sensibility disc); 3 mm and 4 mm in the series on Sarcina lutea (Test No. 3, 10 microliters/10 mL and 20 μL applied to sensibility disc). In addition, the “S (mm), total of the three zones” value in the series on Sarcina lutea (Test No 2, 16.0 microliters/100 mL, 10 μL applied, unlabelled sum line) came to 62 mm; in the series on Sarcina lutea (Test No. 1, 5 pure μL, unlabelled sum line) it was 127 mm; with Sarcina lutea (Test No. 3, 10 microliters/10 mL, 20 μL applied, unlabelled sum line) it was 10 mm. Besides, the “Sample zone of inhibition relative to pattern” value in the series on Sarcina lutea (Test No. 1, versus ceftriaxone 10 μg disc) is given as “three times bigger”. Moreover, the figures for the “Zone of Inhibition” value in the series with Sarcina lutea (applied volume to disc 0.2 μL (MIC)), in the series on Sarcina lutea (applied volume to disc 1.6 M) and in the series on Sarcina lutea (applied volume to disc 5 μL) were 3.3 mm, 20.0 mm and 42.0 mm, respectively. In the series on Sarcina lutea (volume applied to disc), the “Minimum Inhibitory Concentration (MIC)” value was ~0.2 µL. For the same molecule, in the series with Staphylococcus aureus, the “Activity against Staphylococcus aureus” value was “high activity”. The “Activity against Pseudomona aeruginosa” value with Pseudomona aeruginosa is on record as “high activity”. The “Colony count in histidine-poor medium” value in [5] and in series [6] was “did not increase normal colony count” each time. The “Activity against Klebsiela pneumoniae” value in the series with Klebsiela pneumoniae is “high activity”. In addition, the “Activity against Escherichia coli” value in the series on Escherichia coli is on record as “high activity”. For the same molecule, the “Treatment of developed infection” value in series [9] is recorded as “successfully treated”.
Regarding `CC/C(=C(\c1ccccc1)c1ccc(OCCN(C)C)cc1)c1ccccc1` [Tamoxifen], in series [3], the “LD50 from curves of percent inhibition of proliferation” value was 345 µM.
As for `CN(Cc1cnc2nc(N)nc(N)c2n1)c1ccc(C(=O)N[C@@H](CCC(=O)O)C(=O)O)cc1` [methotrexate, reference compound], the “Anti-proliferative activity against CaSKi” value in series [4] is listed as “lacked activity”.

The record behind these values is patent publication US7956088B2, “Synthetic lactone formulations and methods of use” (priority 2002, dated 2011).
